From patent publication US20260055117A1, “SUBSTITUTED PYRIDONE GPR84 ANTAGONISTS AND USES THEREOF” (Liminal BioSciences Limited, priority 2022, published 2026)

Target: T1, human GPR84 receptor (Homo sapiens, UniProt Q9NQS5)
T1 construct: host or cells: HEK293, transiently transfected
Assay: Gαi biosensor BRET assay (GPR84 antagonism vs agonist ZQ-16)
Type: cell-based
Conditions: HEK293 cells, 200 nmol/L agonist ZQ-16; for inhibition at 10 µM: tested at 10 μM (concentration code D); for IC50: Gαi biosensor BRET assay; for inhibition at 2 µM: tested at 2 μM (concentration code A)
Summary of the method: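 HEK293 cells transiently expressing GPR84, Gαi2-Rluc8, GFP10-Gγ2 and Gβ1 were pre-incubated with compounds 5 min at 37 °C in Tyrode's buffer pH 7.5, then stimulated with 200 nmol/L ZQ-16 for 5 min at room temperature. BRET2 (acceptor/donor ratio) read after 5 μmol/L coelenterazine 400A, background- and vehicle-corrected.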

T1 sequence (Q9NQS5 whole entry): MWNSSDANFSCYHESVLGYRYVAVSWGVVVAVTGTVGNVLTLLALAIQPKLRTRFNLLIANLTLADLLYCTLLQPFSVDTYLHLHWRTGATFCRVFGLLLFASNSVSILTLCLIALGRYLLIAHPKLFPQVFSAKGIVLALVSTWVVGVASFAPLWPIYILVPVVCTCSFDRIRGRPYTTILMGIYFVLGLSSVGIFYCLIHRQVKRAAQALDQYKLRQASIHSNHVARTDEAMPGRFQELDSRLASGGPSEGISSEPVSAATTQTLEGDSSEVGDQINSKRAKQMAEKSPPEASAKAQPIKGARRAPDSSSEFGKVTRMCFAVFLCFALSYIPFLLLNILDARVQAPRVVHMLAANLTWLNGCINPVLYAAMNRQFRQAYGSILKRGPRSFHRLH

Compound	inhibition at 10 µM [%]	IC50 [µM]	inhibition at 2 µM [%]
Cc1cc(C#CC2CC2)cc(=O)n1[C@@H](C)c1ccc(C#CC2CC2)cc1 [Compound I-234]	< 25		
Cc1cc(OCc2nnnn2C)cc(=O)n1[C@H](C)c1ccc(C#CC2CC2)cc1 [Compound I-260]		≤ 0.3	> 75
Cc1cc(OCC(=O)NC(C)C)cc(=O)n1[C@H](C)c1ccc(C#CC2CC2)cc1 [Compound I-54]	> 75		
Cc1cc(OCC2COCCO2)cc(=O)n1C(C)c1ccc(OCC2CCN(C(=O)C3CC3)CC2)c(F)c1 (centres unmarked) [Compound I-16]	< 25		
Cc1cc(OCC(=O)NCC(C)C)cc(=O)n1[C@H](C)c1ccc(C#CC2CC2)cc1 [Compound I-49]	> 75		
Cc1cc(OCC2COCCO2)cc(=O)n1[C@H](C)c1ccc(NC(=O)c2cnccn2)c(F)c1 (stereo partly drawn) [Compound I-9, N-(4-((1R)-1-(4-((1,4-dioxan-2-yl)methoxy)-6-methyl-2-oxopyridin-1 (2H)-yl)ethyl)-2-fluorophenyl) pyrazine-2-carboxamide]	< 25		
Cc1cc(OCC(=O)N(C)C)cc(=O)n1[C@H](C)c1ccc(C#CC2(C(F)(F)F)CC2)cc1 [Compound I-56]	> 75	≤ 0.3	
Cc1noc(COc2cc(C)n([C@H](C)c3ccc(C#CC4CC4)cc3)c(=O)c2)n1 [Compound I-12]	> 75		
Cc1cc(OCS(=O)(=O)N(C)C)cc(=O)n1[C@H](C)c1ccc(C#CC2CC2)cc1 [Compound I-41]	50 to 75		
Cc1cc(OCC(=O)N(C)C2CN(C)C2)cc(=O)n1[C@H](C)c1ccc(C#CC2CC2)cc1 [Compound I-59]	> 75		
CCCCCCOc1ccc([C@@H](C)n2c(C)cc(OCc3ncccn3)cc2=O)cc1 [Compound I-130]	< 25		
Cc1cc(OCC(N(C)C)C(F)(F)F)cc(=O)n1[C@H](C)c1ccc(C#CC2CC2)cc1 (some centres unmarked) [Compound I-86]	50 to 75		
CCc1cc([C@@H](C)n2c(C)cc(OCC(=O)N(C)C)cc2=O)ccc1C#CC1CC1 [Compound I-39]		≤ 0.3	> 75
Cc1cc(OCC(=O)N(C)C)cc(=O)n1[C@H](C)c1ccc(C#CC2CC2(F)F)c(F)c1 (single isomer, unassigned) [Compound I-84]		≤ 0.3	
Cc1cc(OCC(=O)N(C)C)cc(=O)n1[C@H](C)c1ccc(C#CC2CC2)c(Br)c1 [Compound I-35]		≤ 0.3	> 75
Cc1cc(OCC(=O)N(C)C2CC(F)(F)C2)cc(=O)n1[C@H](C)c1ccc(C#CC2CC2)cc1 [Compound I-67]	> 75	0.3 to 1	
Cc1cc(OCC(=O)N(C)C)cc(=O)n1[C@H](C)c1ccc(C#CC2CC2(F)F)c(F)c1 (single isomer, unassigned) [Compound I-83]		≤ 0.3	> 75

Compound	inhibition at 10 µM [%]	IC50 [µM]	inhibition at 2 µM [%]
Cc1cc(OCC2(N(C)C)COC2)cc(=O)n1[C@H](C)c1ccc(C#CC2CC2)c(F)c1 [Compound I-19]	50 to 75		
Cc1cc(OCC(=O)N(C)C)cc(=O)n1C(C)c1ccnc(O)c1 (centres unmarked) [Compound I-231]	< 25		
Cc1cc(OCC(=O)N2CC[C@H](S(C)(=O)=O)C2)cc(=O)n1[C@H](C)c1ccc(C#CC2CC2)cc1 [Compound I-253]	> 75		
CCC#Cc1ccc([C@@H](C)n2c(C)cc(OCC(=O)N(C)C)cc2=O)cc1 [Compound I-28]	> 75	≤ 0.3	
CCCCc1ccc(C(C)n2c(C)cc(OCc3ncccn3)cc2=O)cc1 (centres unmarked) [Compound I-5, 1-(1-(4-butylphenyl)ethyl)-6-methyl-4-(pyrimidin-2-ylmethoxy)pyridin-2 (1H)-one]	< 25		
Cc1noc(COc2cc(C)n([C@H](C)c3ccc(C#CC4CC4)c(F)c3)c(=O)c2)n1 [Compound I-18]	> 75		
Cc1cc(OCC(=O)N2CCC(F)(F)CC2)cc(=O)n1[C@H](C)c1ccc(C#CC2CC2)c(F)c1 [Compound I-26]	> 75		
COc1cccc([C@H](C)n2c(C)cc(C#CC3CC3)cc2=O)c1 [Compound I-238]			< 25
Cc1cc(OCC(=O)N2CC[C@@H](O)C2)cc(=O)n1[C@H](C)c1ccc(C#CC2CC2)cc1 [Compound I-241]		≤ 0.3	> 75
Cc1cc(OCC(=O)N2CCN(C)CC2)cc(=O)n1[C@H](C)c1ccc(C#CC2CC2)cc1 [Compound I-60]	> 75	≤ 0.3	
Cc1nc(OCC(=O)N2CCCC2)cc(=O)n1[C@@H](C)c1ccc(C#CC2CC2)cc1 [Compound I-236]	25 to 50		
Cc1cc(OCC(=O)N(C)C2CC2)cc(=O)n1[C@H](C)c1ccc(C#CC2CC2)cc1 [Compound I-42]	> 75	≤ 0.3	
Cc1cc(OCC(=O)N(C)C)cc(=O)n1[C@H](C)c1ccc(C#CC2CC2(F)F)c(F)c1 (stereo partly drawn) [Compound I-64, 2-((1-((1R)-1-(4-((2,2-difluorocyclopropyl)ethynyl)-3-fluorophenyl)ethyl)-6-methyl-2-oxo-1,2-dihydropyridin-4-yl)oxy)-N,N-dimethylacetamide]	> 75	≤ 0.3	
COC(=O)COc1cc(C)n([C@H](C)c2ccc(C#CC3CC3)cc2)c(=O)c1 [Compound I-22]	> 75		
Cc1cc(OCC(=O)N(C)C)cc(=O)n1[C@H](C)c1ccc(C#CC2CC2)c(O)c1 [Compound I-72]	> 75	0.3 to 1	
Cc1cc(OCC2OCCC(C)(C)O2)cc(=O)n1[C@H](C)c1ccc(C#CC2CC2)cc1 (some centres unmarked) [Compound I-40]	25 to 50		

The remaining lines, values ahead:

inhibition at 10 µM [%]	IC50 [µM]	inhibition at 2 µM [%]	Compound
> 75	0.3 to 1		Cc1cc(OCC(O)C(C)(C)C)cc(=O)n1[C@H](C)c1ccc(C#CC2CC2)cc1 (some centres unmarked) [Compound I-276]
	≤ 0.3	> 75	CNS(=O)(=O)[C@@H]1CCN(C(=O)COc2cc(C)n([C@H](C)c3ccc(C#CC4CC4)cc3)c(=O)c2)C1 [Compound I-321]
25 to 50			CC(=O)C(C)(C)Oc1cc(C)n([C@H](C)c2ccc(C#CC3CC3)cc2)c(=O)c1 [Compound I-271]
		> 75	Cc1cc(OCC(=O)N2CC[C@@H](NS(C)(=O)=O)C2)cc(=O)n1[C@H](C)c1ccc(C#CC2CC2)cc1 [Compound I-336]
	≤ 0.3	> 75	Cc1cc(OCC(=O)N2CC(CO)C2)cc(=O)n1[C@H](C)c1ccc(C#CC2CC2)cc1 [Compound I-291]
> 75	≤ 0.3		Cc1cc(OCC(=O)N2CCCC23CC3)cc(=O)n1[C@H](C)c1ccc(C#CC2CC2)cc1 [Compound I-320]
	0.3 to 1	> 75	Cc1cc(OCC(=O)C(C)(C)C)cc(=O)n1[C@H](C)c1ccc(C#CC2CC2)cc1 [Compound I-272]
		> 75	Cc1cc(OCC(=O)N2CC[C@H](NS(C)(=O)=O)C2)cc(=O)n1[C@H](C)c1ccc(C#CC2CC2)cc1 [Compound I-335]
> 75	0.3 to 1		Cc1cc(OCC(=O)N2CC3C(C2)C3(C)C)cc(=O)n1[C@H](C)c1ccc(C#CC2CC2)cc1 (some centres unmarked) [Compound I-285]
	0.3 to 1	> 75	Cc1cc(OCC(=O)N2CC(F)C2)cc(=O)n1[C@H](C)c1ccc(C#CC2CC2)cc1 [Compound I-288]
50 to 75			Cc1cc(COCC(=O)N(C)C)cc(=O)n1[C@H](C)c1ccc(C#CC2CC2)cc1 [Compound I-340]
> 75	0.3 to 1		Cc1cc(OCC(=O)N(C(C)C)C(C)C)cc(=O)n1[C@H](C)c1ccc(C#CC2CC2)cc1 [Compound I-347]
> 75			Cc1cc(OCC(=O)C2CCCC2)cc(=O)n1[C@H](C)c1ccc(C#CC2CC2)cc1 [Compound I-273]
> 75			COCCNC(=O)COc1cc(C)n([C@H](C)c2ccc(C#CC3CC3)cc2)c(=O)c1 [Compound I-349]
		> 75	Cc1cc(OCc2nnnn2C2CC2)cc(=O)n1[C@H](C)c1ccc(C#CC2CC2)cc1 [Compound I-331]
> 75	> 3		COC(COc1cc(C)n([C@H](C)c2ccc(C#CC3CC3)cc2)c(=O)c1)C(C)(C)C (some centres unmarked) [Compound I-277]
> 75			Cc1cc(OCC(O)C(C)C)cc(=O)n1[C@H](C)c1ccc(C#CC2CC2)cc1 (some centres unmarked) [Compound I-274]
> 75			Cc1cc(OCC(=O)N2CC[C@H](N(C)S(C)(=O)=O)C2)cc(=O)n1[C@H](C)c1ccc(C#CC2CC2)cc1 [Compound I-337]
> 75			Cc1cc(OCC(=O)N2CC[C@@H](N(C)S(C)(=O)=O)C2)cc(=O)n1[C@H](C)c1ccc(C#CC2CC2)cc1 [Compound I-338]
> 75	≤ 0.3		Cc1cc(OCC(=O)N2C[C@@H](O)[C@H](O)C2)cc(=O)n1[C@H](C)c1ccc(C#CC2CC2)cc1 [Compound I-315]
50 to 75			Cc1cc(OCCN(C)C)cc(=O)n1[C@H](C)c1ccc(C#CC2CC2)cc1 [Compound I-280]
< 25			Cc1cc(OCC(=O)O)cc(=O)n1[C@@H](C)c1ccc(C#CC2CC2)cc1 [Compound I-303]
> 75	1 to 3		Cc1cc(OCC(=O)N2CC[C@H](S(=O)(=O)N(C)C)C2)cc(=O)n1[C@H](C)c1ccc(C#CC2CC2)cc1 [Compound I-333]
> 75	≤ 0.3		Cc1cc(OCC(=O)N2CC[C@H](C(=O)O)[C@H]2C)cc(=O)n1[C@H](C)c1ccc(C#CC2CC2)cc1 [Compound I-304]
	≤ 0.3	> 75	Cc1cc(OCC(=O)N2CC3CC3C2)cc(=O)n1[C@H](C)c1ccc(C#CC2CC2)cc1 (some centres unmarked) [Compound I-284]
